#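 These data come from cells grown in 96-well plates and exposed to compound for 48 hours at five concentrations. GI50 is the concentration that inhibits growth by half. At the TGI there is no net growth.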
# How the values were obtained:
# Test in all cases: NCI tumour cell line growth inhibition, 48 h
# 786-0 renal = test system: 786-0 renal
# A498 renal = test system: A498 renal
# A549 NSCLC = test system: A549 NSCLC
# ACHN renal = test system: ACHN renal
# BT-549 breast = test system: BT-549 breast
# CCRF-CEM leukemia = test system: CCRF-CEM leukemia
# COLO 205 colon = test system: COLO 205 colon
# DU-145 prostate = test system: DU-145 prostate
# EKVX NSCLC = test system: EKVX NSCLC
# HCC-2998 colon = test system: HCC-2998 colon
# HCT-116 colon = test system: HCT-116 colon
# HCT-15 colon = test system: HCT-15 colon
# HL-60(TB) leukemia = test system: HL-60(TB) leukemia
# HOP-62 NSCLC = test system: HOP-62 NSCLC
# HOP-92 NSCLC = test system: HOP-92 NSCLC
# HS 578T breast = test system: HS 578T breast
# HT29 colon = test system: HT29 colon
# IGROV1 ovarian = test system: IGROV1 ovarian
# K-562 leukemia = test system: K-562 leukemia
# KM12 colon = test system: KM12 colon
# LOX IMVI melanoma = test system: LOX IMVI melanoma
# M14 melanoma = test system: M14 melanoma
# MALME-3M melanoma = test system: MALME-3M melanoma
# MCF7 breast = test system: MCF7 breast
# MDA-MB-231 breast = test system: MDA-MB-231 breast
# MDA-MB-435 = test system: MDA-MB-435
# MDA-MB-468 breast = test system: MDA-MB-468 breast
# MOLT-4 leukemia = test system: MOLT-4 leukemia
# NCI-H226 lung = test system: NCI-H226 lung
# NCI-H23 lung = test system: NCI-H23 lung
# NCI-H460 lung = test system: NCI-H460 lung
# NCI-H522 lung = test system: NCI-H522 lung
# NCI/ADR-RES ovarian = test system: NCI/ADR-RES ovarian
# OVCAR-3 ovarian = test system: OVCAR-3 ovarian
# OVCAR-4 ovarian = test system: OVCAR-4 ovarian
# OVCAR-5 ovarian = test system: OVCAR-5 ovarian
# OVCAR-8 ovarian = test system: OVCAR-8 ovarian
# PC-3 prostate = test system: PC-3 prostate
# RPMI-8226 leukemia = test system: RPMI-8226 leukemia
# RXF 393 renal = test system: RXF 393 renal
# SF-268 CNS = test system: SF-268 CNS
# SF-295 CNS = test system: SF-295 CNS
# SF-539 CNS = test system: SF-539 CNS
# SK-MEL-2 melanoma = test system: SK-MEL-2 melanoma
# SK-MEL-28 melanoma = test system: SK-MEL-28 melanoma
# SK-MEL-5 melanoma = test system: SK-MEL-5 melanoma
# SK-OV-3 ovarian = test system: SK-OV-3 ovarian
# SN12C renal = test system: SN12C renal
# SNB-19 CNS = test system: SNB-19 CNS
# SNB-75 CNS = test system: SNB-75 CNS
# SR leukemia = test system: SR leukemia
# SW-620 colon = test system: SW-620 colon
# T-47D breast = test system: T-47D breast
# TK-10 renal = test system: TK-10 renal
# U251 CNS = test system: U251 CNS
# UACC-257 melanoma = test system: UACC-257 melanoma
# UACC-62 melanoma = test system: UACC-62 melanoma
# UO-31 renal = test system: UO-31 renal
smiles,measurement,setting,value
Cc1cc(C(NC(=O)C2CC3(CC(Nc4cccc5c4C(=O)N(C4CCC(=O)NC4=O)C5=O)C3)C2)c2ccc3c(c2)OC(F)(F)O3)c(O)c2ncccc12 (stereo not drawn),GI50,786-0 renal,452 nM
same,TGI,786-0 renal,> 100000 nM
same,GI50,A498 renal,> 100000 nM
same,TGI,A498 renal,> 100000 nM
same,GI50,A549 NSCLC,418 nM
same,TGI,A549 NSCLC,> 100000 nM
same,GI50,ACHN renal,359 nM
same,TGI,ACHN renal,> 100000 nM
same,GI50,BT-549 breast,224 nM
same,TGI,BT-549 breast,> 100000 nM
same,GI50,CCRF-CEM leukemia,390 nM
same,TGI,CCRF-CEM leukemia,> 100000 nM
same,GI50,COLO 205 colon,437 nM
same,TGI,COLO 205 colon,> 100000 nM
same,GI50,DU-145 prostate,461 nM
same,TGI,DU-145 prostate,> 100000 nM
same,GI50,EKVX NSCLC,349 nM
same,TGI,EKVX NSCLC,> 40600 nM
same,GI50,HCC-2998 colon,340 nM
same,GI50,HCT-116 colon,420 nM
same,TGI,HCT-116 colon,> 100000 nM
same,GI50,HCT-15 colon,307 nM
same,TGI,HCT-15 colon,> 100000 nM
same,GI50,HL-60(TB) leukemia,314 nM
same,GI50,HOP-62 NSCLC,392 nM
same,TGI,HOP-62 NSCLC,> 100000 nM
same,GI50,HOP-92 NSCLC,382 nM
same,TGI,HOP-92 NSCLC,> 100000 nM
same,GI50,HS 578T breast,433 nM
same,TGI,HS 578T breast,> 100000 nM
same,GI50,HT29 colon,474 nM
same,TGI,HT29 colon,> 100000 nM
same,GI50,IGROV1 ovarian,313 nM
same,TGI,IGROV1 ovarian,> 32300 nM
same,GI50,K-562 leukemia,334 nM
same,TGI,K-562 leukemia,> 100000 nM
same,GI50,KM12 colon,468 nM
same,TGI,KM12 colon,> 100000 nM
same,GI50,LOX IMVI melanoma,272 nM
same,GI50,M14 melanoma,411 nM
same,TGI,M14 melanoma,2660 nM
same,GI50,MALME-3M melanoma,522 nM
same,TGI,MALME-3M melanoma,> 25400 nM
same,GI50,MCF7 breast,303 nM
same,TGI,MCF7 breast,> 100000 nM
same,GI50,MDA-MB-231 breast,440 nM
same,TGI,MDA-MB-231 breast,> 42700 nM
same,GI50,MDA-MB-435,426 nM
same,TGI,MDA-MB-435,> 100000 nM
same,GI50,MDA-MB-468 breast,473 nM
same,TGI,MDA-MB-468 breast,3130 nM
same,GI50,MOLT-4 leukemia,344 nM
same,TGI,MOLT-4 leukemia,> 100000 nM
same,GI50,NCI-H226 lung,434 nM
same,TGI,NCI-H226 lung,> 23900 nM
same,GI50,NCI-H23 lung,352 nM
same,TGI,NCI-H23 lung,5540 nM
same,GI50,NCI-H460 lung,198 nM
same,TGI,NCI-H460 lung,> 100000 nM
same,GI50,NCI-H522 lung,399 nM
same,TGI,NCI-H522 lung,> 100000 nM
same,GI50,NCI/ADR-RES ovarian,1600 nM
same,TGI,NCI/ADR-RES ovarian,15300 nM
same,GI50,OVCAR-3 ovarian,376 nM
same,TGI,OVCAR-3 ovarian,> 100000 nM
same,GI50,OVCAR-4 ovarian,476 nM
same,TGI,OVCAR-4 ovarian,> 100000 nM
same,GI50,OVCAR-5 ovarian,447 nM
same,TGI,OVCAR-5 ovarian,> 100000 nM
same,GI50,OVCAR-8 ovarian,364 nM
same,TGI,OVCAR-8 ovarian,> 100000 nM
same,GI50,PC-3 prostate,275 nM
same,TGI,PC-3 prostate,> 100000 nM
same,GI50,RPMI-8226 leukemia,350 nM
same,TGI,RPMI-8226 leukemia,> 100000 nM
same,GI50,RXF 393 renal,502 nM
same,TGI,RXF 393 renal,> 30700 nM
same,GI50,SF-268 CNS,420 nM
same,TGI,SF-268 CNS,> 100000 nM
same,GI50,SF-295 CNS,275 nM
same,TGI,SF-295 CNS,> 100000 nM
same,GI50,SF-539 CNS,378 nM
same,TGI,SF-539 CNS,3180 nM
same,GI50,SK-MEL-2 melanoma,375 nM
same,TGI,SK-MEL-2 melanoma,> 100000 nM
same,GI50,SK-MEL-28 melanoma,405 nM
same,TGI,SK-MEL-28 melanoma,> 100000 nM
same,GI50,SK-MEL-5 melanoma,226 nM
same,TGI,SK-MEL-5 melanoma,562 nM
same,GI50,SK-OV-3 ovarian,344 nM
same,TGI,SK-OV-3 ovarian,> 22300 nM
same,GI50,SN12C renal,349 nM
same,TGI,SN12C renal,> 100000 nM
same,GI50,SNB-19 CNS,350 nM
same,TGI,SNB-19 CNS,> 100000 nM
same,GI50,SNB-75 CNS,289 nM
same,TGI,SNB-75 CNS,> 100000 nM
same,GI50,SR leukemia,340 nM
same,TGI,SR leukemia,> 100000 nM
same,GI50,SW-620 colon,531 nM
same,TGI,SW-620 colon,> 100000 nM
same,GI50,T-47D breast,393 nM
same,TGI,T-47D breast,> 100000 nM
same,GI50,TK-10 renal,474 nM
same,TGI,TK-10 renal,> 100000 nM
same,GI50,U251 CNS,210 nM
same,TGI,U251 CNS,> 100000 nM
same,GI50,UACC-257 melanoma,718 nM
same,TGI,UACC-257 melanoma,> 100000 nM
same,GI50,UACC-62 melanoma,282 nM
same,TGI,UACC-62 melanoma,1140 nM
same,GI50,UO-31 renal,295 nM
same,TGI,UO-31 renal,2290 nM

# Reference: PubChem BioAssay (NCI)
